Results published in article PMC3115942 (PLoS ONE, 2011).

Key:
SUIT-2 cells = test: In vitro antiproliferative assay (MTS), SUIT-2; assay type: cell-based, human; settings: 4 day
Description: (§1) Cells were plated at a density of 3000 (THLE-2 and PC-3) and 1000 (PANC-1, SUIT-2 and FEMX) cells per well (on the basis of their growth rate) in 200 µl of medium in a 96-well plate. Medium was changed daily, and after four days, the assay was read using a MTS kit (Promega) according to the instructions of the manufacturer. Graphs display average of percent growth with standard deviation (n = 8).

cKit(h) = target: T1, cKit(h) (Homo sapiens, UniProt P10721); test: Millipore kinaseprofiler diversity array; assay type: biochemical; settings: 10 µM MS-0022
T1 construct: purchased Millipore (Upstate) KinaseProfiler
Description: (§2) Table 4 Kinase activity in presence of 10 µM MS-0022 in a kinaseprofiler diversity array. | column: Activity %

PRAK(h) = target: T2, PRAK(h) (Homo sapiens, UniProt Q8IW41); test: Millipore kinaseprofiler diversity array; assay type: biochemical; settings: 10 µM MS-0022
T2 construct: purchased Millipore (Upstate) KinaseProfiler
Description: as §2

ROCK-I(h) = target: T3, ROCK-I(h) (Homo sapiens, UniProt Q13464); test: Millipore kinaseprofiler diversity array; assay type: biochemical; settings: 10 µM MS-0022
T3 construct: purchased Millipore (Upstate) KinaseProfiler
Description: as §2

GRK5(h) = target: T4, GRK5(h) (Homo sapiens, UniProt P34947); test: Millipore kinaseprofiler diversity array; assay type: biochemical; settings: 10 µM MS-0022
T4 construct: purchased Millipore (Upstate) KinaseProfiler
T4 sequence (P34947 whole entry): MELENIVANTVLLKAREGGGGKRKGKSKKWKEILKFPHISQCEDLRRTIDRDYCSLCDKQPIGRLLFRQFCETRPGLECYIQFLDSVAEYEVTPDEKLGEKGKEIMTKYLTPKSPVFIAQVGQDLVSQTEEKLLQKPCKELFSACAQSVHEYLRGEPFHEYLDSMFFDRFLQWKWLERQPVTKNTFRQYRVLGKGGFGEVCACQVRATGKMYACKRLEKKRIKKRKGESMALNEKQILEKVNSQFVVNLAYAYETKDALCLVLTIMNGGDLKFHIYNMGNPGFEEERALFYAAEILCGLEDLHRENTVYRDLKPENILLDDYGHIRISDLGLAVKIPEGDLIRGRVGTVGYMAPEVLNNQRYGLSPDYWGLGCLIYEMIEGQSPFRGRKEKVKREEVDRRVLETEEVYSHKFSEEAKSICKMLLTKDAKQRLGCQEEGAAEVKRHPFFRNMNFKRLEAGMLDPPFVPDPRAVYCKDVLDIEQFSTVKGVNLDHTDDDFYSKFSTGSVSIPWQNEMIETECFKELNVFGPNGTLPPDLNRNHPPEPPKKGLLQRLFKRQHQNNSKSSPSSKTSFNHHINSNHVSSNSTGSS
Description: as §2

PKG1α(h) = target: T5, PKG1α(h) (Homo sapiens, UniProt Q13976); test: Millipore kinaseprofiler diversity array; assay type: biochemical; settings: 10 µM MS-0022
T5 construct: purchased Millipore (Upstate) KinaseProfiler
Description: as §2

MST1(h) = target: T6, MST1(h) (Homo sapiens, UniProt Q13043); test: Millipore kinaseprofiler diversity array; assay type: biochemical; settings: 10 µM MS-0022
T6 construct: purchased Millipore (Upstate) KinaseProfiler
Description: as §2

NEK2(h) = target: T7, NEK2(h) (Homo sapiens, UniProt P51955); test: Millipore kinaseprofiler diversity array; assay type: biochemical; settings: 10 µM MS-0022
T7 construct: purchased Millipore (Upstate) KinaseProfiler
Description: as §2

IKKα(h) = target: T8, IKKα(h) (Homo sapiens, UniProt O15111); test: Millipore kinaseprofiler diversity array; assay type: biochemical; settings: 10 µM MS-0022
T8 construct: purchased Millipore (Upstate) KinaseProfiler
T8 sequence (O15111 whole entry): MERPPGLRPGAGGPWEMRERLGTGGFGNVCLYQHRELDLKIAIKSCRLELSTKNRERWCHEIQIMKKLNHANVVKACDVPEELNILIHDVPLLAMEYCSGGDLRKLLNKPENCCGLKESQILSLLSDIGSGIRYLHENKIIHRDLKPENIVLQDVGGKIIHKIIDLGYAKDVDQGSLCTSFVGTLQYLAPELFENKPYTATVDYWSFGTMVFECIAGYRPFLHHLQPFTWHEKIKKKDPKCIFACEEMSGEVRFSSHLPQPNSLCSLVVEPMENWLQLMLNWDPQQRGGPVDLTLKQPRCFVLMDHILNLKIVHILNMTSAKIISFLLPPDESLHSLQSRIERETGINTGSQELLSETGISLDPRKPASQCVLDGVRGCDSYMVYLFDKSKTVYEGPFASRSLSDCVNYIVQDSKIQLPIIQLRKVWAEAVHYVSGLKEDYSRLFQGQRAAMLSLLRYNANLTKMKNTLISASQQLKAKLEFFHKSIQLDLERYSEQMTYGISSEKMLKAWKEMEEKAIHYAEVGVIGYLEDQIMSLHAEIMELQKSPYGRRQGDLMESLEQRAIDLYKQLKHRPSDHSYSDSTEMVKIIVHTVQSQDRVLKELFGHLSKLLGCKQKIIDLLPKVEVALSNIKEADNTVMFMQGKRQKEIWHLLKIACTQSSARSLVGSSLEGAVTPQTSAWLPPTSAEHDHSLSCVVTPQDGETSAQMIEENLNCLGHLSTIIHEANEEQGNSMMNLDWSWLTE
Description: as §2

DRAK1(h) = target: T9, DRAK1(h) (Homo sapiens, UniProt Q9UEE5); test: Millipore kinaseprofiler diversity array; assay type: biochemical; settings: 10 µM MS-0022
T9 construct: purchased Millipore (Upstate) KinaseProfiler
Description: as §2

JNK3(h) = target: T10, JNK3(h) (Homo sapiens, UniProt P53779); test: Millipore kinaseprofiler diversity array; assay type: biochemical; settings: 10 µM MS-0022
T10 construct: purchased Millipore (Upstate) KinaseProfiler
Description: as §2

EphA5(h) = target: T11, EphA5(h) (Homo sapiens, UniProt P54756); test: Millipore kinaseprofiler diversity array; assay type: biochemical; settings: 10 µM MS-0022
T11 construct: purchased Millipore (Upstate) KinaseProfiler
Description: as §2

p70S6K(h) = target: T12, p70S6K(h) (Homo sapiens, UniProt P23443); test: Millipore kinaseprofiler diversity array; assay type: biochemical; settings: 10 µM MS-0022
T12 construct: purchased Millipore (Upstate) KinaseProfiler
Description: as §2

Fyn(h) = target: T13, Fyn(h) (Homo sapiens, UniProt P06241); test: Millipore kinaseprofiler diversity array; assay type: biochemical; settings: 10 µM MS-0022
T13 construct: purchased Millipore (Upstate) KinaseProfiler
Description: as §2

ASK1(h) = target: T14, ASK1(h) (Homo sapiens, UniProt Q99683); test: Millipore kinaseprofiler diversity array; assay type: biochemical; settings: 10 µM MS-0022
T14 construct: purchased Millipore (Upstate) KinaseProfiler
Description: as §2

ALK(h) = target: T15, ALK(h) (Homo sapiens, UniProt Q9UM73); test: Millipore kinaseprofiler diversity array; assay type: biochemical; settings: 10 µM MS-0022
T15 construct: purchased Millipore (Upstate) KinaseProfiler
Description: as §2

eEF-2K(h) = target: T16, eEF-2K(h) (Homo sapiens, UniProt O00418); test: Millipore kinaseprofiler diversity array; assay type: biochemical; settings: 10 µM MS-0022
T16 construct: purchased Millipore (Upstate) KinaseProfiler
Description: as §2

c-RAF(h) = target: T17, c-RAF(h) (Homo sapiens, UniProt P04049); test: Millipore kinaseprofiler diversity array; assay type: biochemical; settings: 10 µM MS-0022
T17 construct: purchased Millipore (Upstate) KinaseProfiler
T17 sequence (P04049 whole entry): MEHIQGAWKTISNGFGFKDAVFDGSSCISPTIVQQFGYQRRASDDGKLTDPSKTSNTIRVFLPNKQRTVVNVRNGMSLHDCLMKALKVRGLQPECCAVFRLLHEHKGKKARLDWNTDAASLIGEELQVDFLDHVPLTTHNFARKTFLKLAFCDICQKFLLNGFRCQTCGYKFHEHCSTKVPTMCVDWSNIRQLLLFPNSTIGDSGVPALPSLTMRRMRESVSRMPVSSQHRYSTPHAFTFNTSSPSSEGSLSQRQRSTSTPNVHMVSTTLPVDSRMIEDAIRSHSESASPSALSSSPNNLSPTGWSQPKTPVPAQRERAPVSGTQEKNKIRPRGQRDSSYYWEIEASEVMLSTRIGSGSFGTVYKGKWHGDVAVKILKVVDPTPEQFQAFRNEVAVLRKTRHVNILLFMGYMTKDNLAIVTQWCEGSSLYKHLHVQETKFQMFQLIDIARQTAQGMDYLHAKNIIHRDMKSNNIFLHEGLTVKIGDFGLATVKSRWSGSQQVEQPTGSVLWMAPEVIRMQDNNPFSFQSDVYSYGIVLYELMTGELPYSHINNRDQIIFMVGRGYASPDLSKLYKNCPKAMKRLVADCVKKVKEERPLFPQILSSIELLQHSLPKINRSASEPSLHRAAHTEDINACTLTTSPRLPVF
Description: as §2

Mnk2(h) = target: T18, Mnk2(h) (Homo sapiens, UniProt Q9HBH9); test: Millipore kinaseprofiler diversity array; assay type: biochemical; settings: 10 µM MS-0022
T18 construct: purchased Millipore (Upstate) KinaseProfiler
T18 sequence (Q9HBH9 whole entry): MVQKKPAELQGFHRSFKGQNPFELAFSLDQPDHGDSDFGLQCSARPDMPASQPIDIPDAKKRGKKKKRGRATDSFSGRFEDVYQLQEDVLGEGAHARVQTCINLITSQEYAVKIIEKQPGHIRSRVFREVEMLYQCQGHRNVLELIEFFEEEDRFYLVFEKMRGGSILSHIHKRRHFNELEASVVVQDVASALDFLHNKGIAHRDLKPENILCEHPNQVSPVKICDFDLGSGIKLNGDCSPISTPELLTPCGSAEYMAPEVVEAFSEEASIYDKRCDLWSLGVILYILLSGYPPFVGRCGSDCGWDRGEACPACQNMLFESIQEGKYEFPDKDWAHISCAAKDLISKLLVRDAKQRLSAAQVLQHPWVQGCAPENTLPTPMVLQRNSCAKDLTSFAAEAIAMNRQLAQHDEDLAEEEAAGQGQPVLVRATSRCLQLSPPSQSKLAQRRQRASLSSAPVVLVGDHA
Description: as §2

IRAK4(h) = target: T19, IRAK4(h) (Homo sapiens, UniProt Q9NWZ3); test: Millipore kinaseprofiler diversity array; assay type: biochemical; settings: 10 µM MS-0022
T19 construct: purchased Millipore (Upstate) KinaseProfiler
Description: as §2

CDK2/cyclinA(h) = target: T20, CDK2/cyclinA(h) (Homo sapiens, UniProt P24941); test: Millipore kinaseprofiler diversity array; assay type: biochemical; settings: 10 µM MS-0022
T20 construct: purchased Millipore (Upstate) KinaseProfiler
Description: as §2

MAPK2(h) = target: T21, MAPK2(h) (Homo sapiens, UniProt P28482); test: Millipore kinaseprofiler diversity array; assay type: biochemical; settings: 10 µM MS-0022
T21 construct: purchased Millipore (Upstate) KinaseProfiler
Description: as §2

MSK2(h) = target: T22, MSK2(h) (Homo sapiens, UniProt O75676); test: Millipore kinaseprofiler diversity array; assay type: biochemical; settings: 10 µM MS-0022
T22 construct: purchased Millipore (Upstate) KinaseProfiler
T22 sequence (O75676 whole entry): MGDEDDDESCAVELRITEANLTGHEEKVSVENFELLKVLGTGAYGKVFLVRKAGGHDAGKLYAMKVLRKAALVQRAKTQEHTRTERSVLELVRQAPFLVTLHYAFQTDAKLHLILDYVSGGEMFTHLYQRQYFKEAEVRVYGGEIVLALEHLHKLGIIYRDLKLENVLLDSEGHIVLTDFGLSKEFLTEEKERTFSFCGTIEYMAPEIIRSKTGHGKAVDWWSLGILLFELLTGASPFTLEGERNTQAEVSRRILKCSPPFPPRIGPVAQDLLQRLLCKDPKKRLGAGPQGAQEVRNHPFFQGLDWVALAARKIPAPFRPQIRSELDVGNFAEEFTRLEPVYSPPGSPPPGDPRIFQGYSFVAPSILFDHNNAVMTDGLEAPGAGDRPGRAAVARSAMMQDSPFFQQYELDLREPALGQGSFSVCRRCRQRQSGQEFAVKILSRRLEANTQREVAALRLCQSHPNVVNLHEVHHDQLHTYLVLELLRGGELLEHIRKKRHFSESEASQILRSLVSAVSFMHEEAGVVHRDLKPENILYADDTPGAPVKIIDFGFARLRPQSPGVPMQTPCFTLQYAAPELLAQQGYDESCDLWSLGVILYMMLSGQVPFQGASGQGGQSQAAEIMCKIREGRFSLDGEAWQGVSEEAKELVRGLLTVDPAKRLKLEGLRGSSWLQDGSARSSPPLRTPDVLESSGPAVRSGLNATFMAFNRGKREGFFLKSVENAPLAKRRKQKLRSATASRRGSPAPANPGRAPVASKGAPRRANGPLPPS
Description: as §2

CDK7/cyclinH/MAT1(h) = target: T23, CDK7/cyclinH/MAT1(h) (Homo sapiens, UniProt P50613); test: Millipore kinaseprofiler diversity array; assay type: biochemical; settings: 10 µM MS-0022
T23 construct: purchased Millipore (Upstate) KinaseProfiler
Description: as §2

cSRC(h) = target: T24, cSRC(h) (Homo sapiens, UniProt P12931); test: Millipore kinaseprofiler diversity array; assay type: biochemical; settings: 10 µM MS-0022
T24 construct: purchased Millipore (Upstate) KinaseProfiler
T24 sequence (P12931 whole entry): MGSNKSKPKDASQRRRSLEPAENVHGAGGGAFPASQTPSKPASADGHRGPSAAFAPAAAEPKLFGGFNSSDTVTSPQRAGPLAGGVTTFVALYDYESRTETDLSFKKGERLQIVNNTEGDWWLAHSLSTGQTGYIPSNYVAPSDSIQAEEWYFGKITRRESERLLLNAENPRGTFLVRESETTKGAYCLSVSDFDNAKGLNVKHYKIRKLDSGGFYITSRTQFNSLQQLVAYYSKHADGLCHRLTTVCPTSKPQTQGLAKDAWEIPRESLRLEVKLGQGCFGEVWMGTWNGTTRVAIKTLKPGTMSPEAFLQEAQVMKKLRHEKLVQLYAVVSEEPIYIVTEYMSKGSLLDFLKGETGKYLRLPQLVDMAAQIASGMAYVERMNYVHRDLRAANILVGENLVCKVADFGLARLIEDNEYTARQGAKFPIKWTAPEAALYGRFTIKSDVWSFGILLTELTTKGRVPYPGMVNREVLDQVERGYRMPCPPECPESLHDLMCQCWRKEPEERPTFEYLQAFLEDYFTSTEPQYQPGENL
Description: as §2

Rsk1(h) = target: T25, Rsk1(h) (Homo sapiens, UniProt Q15418); test: Millipore kinaseprofiler diversity array; assay type: biochemical; settings: 10 µM MS-0022
T25 construct: purchased Millipore (Upstate) KinaseProfiler
T25 sequence (Q15418 whole entry): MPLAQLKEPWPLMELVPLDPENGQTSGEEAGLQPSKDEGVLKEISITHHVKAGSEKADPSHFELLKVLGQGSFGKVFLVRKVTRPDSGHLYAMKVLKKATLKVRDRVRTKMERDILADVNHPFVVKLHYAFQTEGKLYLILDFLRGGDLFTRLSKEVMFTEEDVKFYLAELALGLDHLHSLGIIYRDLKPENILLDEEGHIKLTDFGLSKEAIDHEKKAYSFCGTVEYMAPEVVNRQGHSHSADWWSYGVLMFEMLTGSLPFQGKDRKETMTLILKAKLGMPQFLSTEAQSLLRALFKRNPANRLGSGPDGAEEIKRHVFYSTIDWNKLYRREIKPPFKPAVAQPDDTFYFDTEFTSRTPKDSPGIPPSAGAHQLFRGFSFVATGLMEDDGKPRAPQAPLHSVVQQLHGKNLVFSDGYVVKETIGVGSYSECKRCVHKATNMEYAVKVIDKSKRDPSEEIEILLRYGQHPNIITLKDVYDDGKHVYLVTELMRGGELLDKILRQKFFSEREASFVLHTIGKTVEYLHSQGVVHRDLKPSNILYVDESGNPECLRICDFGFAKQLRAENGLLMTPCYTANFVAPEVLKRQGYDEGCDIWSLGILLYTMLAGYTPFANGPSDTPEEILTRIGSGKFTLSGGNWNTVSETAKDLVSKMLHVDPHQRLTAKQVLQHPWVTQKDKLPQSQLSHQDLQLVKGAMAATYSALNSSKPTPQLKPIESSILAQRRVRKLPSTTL
Description: as §2

MKK7β(h) = target: T26, MKK7β(h) (Homo sapiens, UniProt O14733); test: Millipore kinaseprofiler diversity array; assay type: biochemical; settings: 10 µM MS-0022
T26 construct: purchased Millipore (Upstate) KinaseProfiler
Description: as §2

MAPKAP-K2(h) = target: T27, MAPKAP-K2(h) (Homo sapiens, UniProt P49137); test: Millipore kinaseprofiler diversity array; assay type: biochemical; settings: 10 µM MS-0022
T27 construct: purchased Millipore (Upstate) KinaseProfiler
Description: as §2

CHK1(h) = target: T28, CHK1(h) (Homo sapiens, UniProt O14757); test: Millipore kinaseprofiler diversity array; assay type: biochemical; settings: 10 µM MS-0022
T28 construct: purchased Millipore (Upstate) KinaseProfiler
T28 sequence (O14757 whole entry): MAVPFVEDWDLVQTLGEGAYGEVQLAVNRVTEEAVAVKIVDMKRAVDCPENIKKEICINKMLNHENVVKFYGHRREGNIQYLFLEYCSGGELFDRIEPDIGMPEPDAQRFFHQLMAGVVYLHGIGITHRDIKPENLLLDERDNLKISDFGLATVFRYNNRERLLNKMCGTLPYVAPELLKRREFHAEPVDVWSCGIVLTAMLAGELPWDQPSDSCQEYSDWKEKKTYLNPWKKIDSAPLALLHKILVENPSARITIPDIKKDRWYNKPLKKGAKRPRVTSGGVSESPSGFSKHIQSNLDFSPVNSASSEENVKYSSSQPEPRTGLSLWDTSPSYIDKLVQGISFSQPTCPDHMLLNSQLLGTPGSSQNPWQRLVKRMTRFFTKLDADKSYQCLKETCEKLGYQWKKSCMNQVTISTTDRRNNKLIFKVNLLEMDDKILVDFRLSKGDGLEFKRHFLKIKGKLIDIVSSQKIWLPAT
Description: as §2

PAK2(h) = target: T29, PAK2(h) (Homo sapiens, UniProt Q13177); test: Millipore kinaseprofiler diversity array; assay type: biochemical; settings: 10 µM MS-0022
T29 construct: purchased Millipore (Upstate) KinaseProfiler
Description: as §2

EphB4(h) = target: T30, EphB4(h) (Homo sapiens, UniProt P54760); test: Millipore kinaseprofiler diversity array; assay type: biochemical; settings: 10 µM MS-0022
T30 construct: purchased Millipore (Upstate) KinaseProfiler
Description: as §2

[1] = test system: GLI1 mRNA in SUIT-2 cells; test: Real time PCR of GLI1 mRNA in SUIT-2; assay type: cell-based, human; settings: 48 hrs
Description: Cells were lysed for RNA extraction after 48 or 72 hours of treatment. Total RNA from cultured cells or tumor tissue was isolated using the GeneElute miniprep kit (Sigma-Aldritch) following the manufacturer^'s instructions. cDNA was synthesized from the isolated mRNA using the Retroscript kit (Ambion), and real-time PCR was carried out using the SYBR Green PCR master mix (Stratagene) according to the manufacturer^'s instructions with an Mx3000P cycler (Stratagene). The relative concentrations of cDNA present in each sample were calculated by the MxPro software (Stratagene), normalized for GAPDH (mRNA from cells) or GUS (mRNA from tumors). For real time PCR primer sequences see Table 6. For the tumor tissue real time PCR, previously described human and mouse specific primers against GUSB, PTCH1 and GLI1were used.

PC-3 cells = test: In vitro antiproliferative assay (MTS), PC-3; assay type: cell-based, human; settings: 4 day
Description: as §1

`Cc1cccn2cc(-c3ccc(NC(=O)c4ccccc4Br)cc3)nc12` [MS-0022, 2-bromo-N-(4-(8-methylimidazo[1,2-a]pyridin-2-yl)phenyl)benzamide] was tested, and the “growth (MTS), SUIT-2” value (SUIT-2 cells) was “only MS-0022 reduced growth”, the activity at 10 µM (cKit(h)) was 109% and the activity at 10 µM (PRAK(h)) was 71%. For the same molecule, the activity at 10 µM (ROCK-I(h)) was 103%, the activity at 10 µM (GRK5(h)) was 119% and the activity at 10 µM (PKG1α(h)) was 94%. It also gave an activity at 10 µM (MST1(h)) of 94%, an activity at 10 µM (NEK2(h)) of 127% and an activity at 10 µM (IKKα(h)) of 103%. For the same molecule, the activity at 10 µM (DRAK1(h)) was 97%, the activity at 10 µM (JNK3(h)) was 71% and the activity at 10 µM (EphA5(h)) was 112%. The activity at 10 µM (p70S6K(h)) was 94%, the activity at 10 µM (Fyn(h)) was 100% and the activity at 10 µM (ASK1(h)) was 91%. For the same molecule, the activity at 10 µM (ALK(h)) was 95%, the activity at 10 µM (eEF-2K(h)) was 99% and the activity at 10 µM (c-RAF(h)) was 106%. It also gave an activity at 10 µM (Mnk2(h)) of 90%, an activity at 10 µM (IRAK4(h)) of 95% and an activity at 10 µM (CDK2/cyclinA(h)) of 98%. For the same molecule, the activity at 10 µM (MAPK2(h)) was 101%, the activity at 10 µM (MSK2(h)) was 92% and the activity at 10 µM (CDK7/cyclinH/MAT1(h)) was 103%. It also gave an activity at 10 µM (cSRC(h)) of 83%, an activity at 10 µM (Rsk1(h)) of 91% and an activity at 10 µM (MKK7β(h)) of 109%. It also gave an activity at 10 µM (MAPKAP-K2(h)) of 92%, an activity at 10 µM (CHK1(h)) of 84% and an activity at 10 µM (PAK2(h)) of 93%. For the same molecule, the activity at 10 µM (EphB4(h)) was 99%, the “GLI1 mRNA levels, SUIT-2” value [1] was “reduced GLI1 mRNA levels” and the “growth (MTS), PC-3” value (PC-3 cells) was “growth was only reduced by MS-0022”.
